From patent US20110038957A1, “NOVEL NUTRACEUTICAL COMPOSITIONS CONTAINING STEVIA EXTRACT OR STEVIA EXTRACT CONSTITUENTS AND USES THEREOF” (priority 2007, published 2011)
Read-outs that look alike come from different tables or passages of the source.

Key:
adult mice [1] = conditions: systemic administration (Kinney et al 2003); cited from earlier work
NMDA receptor [2] = conditions: rat hippocampal slice, Schaffer collateral stimulation (Bergeron et al 1998); cited from earlier work
adult mice [3] = conditions: systemic administration, adult mice (Kinney et al 2003); cited from earlier work
NMDA receptor [4] = conditions: mouse hippocampal slice, Schaffer collateral stimulation (Bergeron et al 1998); cited from earlier work
[5] = tested on: pCREB (activated form of the cAMP response element binding protein); assay: Hippocampal slice cultures, immunohistochemistry of synaptic marker pCREB; assay type: cell-based, Wistar rats; parameters: key: ++++ shows a qualitative maximal activation; ++ and + signify a half-maximum and a moderate activation, respectively; ++ and + signify a half-maximum and a moderate activation, respectively; ± indicates no change in immunoreactivity; conditions: 15 min treatment after 48 h in culture; vs sister cultures treated with buffer
Procedure: (§1) Seven-day-old Wistar rats were decapitated using a guillotine. In less than 1 minute the skull was opened, the cerebral hemispheres were separated and transferred and both hippocampi were dissected and transferred into ice-cold buffer containing 137 mM NaCl, 5 mM KCl, 0.85 mM Na2HPO4, 1.5 mM CaCl2, 0.66 mM KH2PO4, 0.28 mM MgSO4, 1 mM MgCl2, 2.7 mM NaHCO3, 1 mM Kynurenic acid and 0.6% D-glucose. Transverse hippocampal slices (400 μm) were prepared using a vibrating blade microtome (VT1200S; Leica Microsystems (Schweiz) AG, Heerbrugg, Switzerland) in the same buffer. Hippocampal slices were individually placed on membrane inserts (Millicell Culture Plate Inserts, 0.4 μm) and cultivated at 35° C., 5% CO2, 95% humidity in a medium containing a 1:1 mixture of BME and MEM (both from Invitrogen) containing 25% heat-inactivated horse serum, 1× GlutaMAX, 1× Penicillin/Streptomycin, 0.6% glucose and 1 mM Kynurenic acid (Stoppini 1991 J. Neurosci. Methods 37(2):173-82). After 48 h in culture, synaptic NMDA receptors were activated by addition of Stevia extract, its major constituents or control substances for 15 min in 140 mM NaCl, 5 mM KCl, 1.3 mM CaCl2, 25 mM HEPES (pH 7.3), 33 mM D-glucose and 0.02 mM bicuculline methiodide. […] An additional positive control comprised the addition of 200 μM glycine to sister cultures. After the treatments, sections were washed and fixed for immunohistochemistry. Markers of enhanced synaptic activity, normally associated with long-term potentiation, representing an ex vivo model of learning and memory were quantitated (see Table 3, below). Treatment of hippocampal cultures with Stevia extract, steviol, isosteviol and stevioside induced one or more biochemical markers typical for LTP (pCREB: activated form of the cAMP response element binding protein; pMAPK: activated form of the mitogen-activated protein kinase; […]

[6] = tested on: GluR1 (cell surface presence of AMPA receptor 1); assay: Hippocampal slice cultures, immunohistochemistry of synaptic marker GluR1; assay type: cell-based, Wistar rats; parameters: key to GluR1, relative activation of synaptic marker: ++++ shows a qualitative maximal activation; ++ and + signify a half-maximum and a moderate activation, respectively; ++ and + signify a half-maximum and a moderate activation, respectively; ± indicates no change in immunoreactivity; conditions: 15 min treatment after 48 h in culture; vs sister cultures treated with buffer
Procedure: as §1

[7] = target: T1, human glycine transporter 1b (GlyT1) (Homo sapiens, UniProt P48067); assay: Inhibition of glycine transporter 1 in a cellular assay ([3H]-glycine uptake into CHO cells); assay type: cell-based; conditions: pure compounds, CHO cells expressing GlyT1, 60 nM [3H]-glycine, 30 minutes, room temperature; for IC50: read-out: IC50 for tritiated glycine uptake
T1 construct: expressed in transfected cells
T1 sequence (P48067 1-652 isoform P48067-3): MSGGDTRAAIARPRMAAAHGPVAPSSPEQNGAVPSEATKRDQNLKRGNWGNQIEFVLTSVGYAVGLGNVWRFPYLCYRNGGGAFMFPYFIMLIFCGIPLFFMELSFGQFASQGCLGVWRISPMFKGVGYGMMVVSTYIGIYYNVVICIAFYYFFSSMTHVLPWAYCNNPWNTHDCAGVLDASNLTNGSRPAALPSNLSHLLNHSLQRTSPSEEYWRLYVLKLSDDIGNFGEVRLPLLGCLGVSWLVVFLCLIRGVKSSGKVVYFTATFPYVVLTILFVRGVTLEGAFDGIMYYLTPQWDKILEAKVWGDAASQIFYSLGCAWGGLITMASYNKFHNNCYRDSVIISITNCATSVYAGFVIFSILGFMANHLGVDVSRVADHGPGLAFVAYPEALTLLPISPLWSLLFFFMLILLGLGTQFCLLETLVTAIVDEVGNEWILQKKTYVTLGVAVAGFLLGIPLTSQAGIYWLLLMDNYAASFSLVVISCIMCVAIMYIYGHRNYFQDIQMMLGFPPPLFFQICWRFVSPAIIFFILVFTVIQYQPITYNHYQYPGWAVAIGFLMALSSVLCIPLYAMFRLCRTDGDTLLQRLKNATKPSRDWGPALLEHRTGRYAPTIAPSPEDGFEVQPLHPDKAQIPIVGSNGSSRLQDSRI
Procedure: CHO cells stably expressing the human glycine transporter 1b cDNA (GlyT1) were routinely grown in Dulbecco's Modified Eagle's Medium (Invitrogen, Carlsbad, USA) containing 10% dialysed foetal calf serum, penicillin, streptomycin, proline and the antibiotic G418. Cells were harvested by trypsinisation one day prior to the assay and were seeded in the above mentioned medium. Immediately prior to the assay, the medium was replaced by uptake buffer containing 150 mM NaCl, 1 mM CaCl2, 2.5 mM KCl, 2.5 mM MgCl2, 10 mM Glucose and 10 mM N-2-hydroxyethylpiperazine-N′-2-ethanesulfonic acid (HEPES buffer).
Glycine uptake into the cells was determined by addition of 60 nM radio-labelled [^3H]-glycine (Amersham Biosciences GE Healthcare, Slough, UK) and incubation for 30 minutes at room temperature. Following removal of unincorporated label by gentle washing three times with the above buffer, incorporated glycine was quantified by liquid scintillation counting.

[8] = tested on: pMAPK (activated form of the mitogen-activated protein kinase); assay: Hippocampal slice cultures, immunohistochemistry of synaptic marker pMAPK; assay type: cell-based, Wistar rats; parameters: key: ++++ shows a qualitative maximal activation; ++ and + signify a half-maximum and a moderate activation, respectively; ++ and + signify a half-maximum and a moderate activation, respectively; ± indicates no change in immunoreactivity; conditions: 15 min treatment after 48 h in culture; vs sister cultures treated with buffer
Procedure: as §1

| IC50 for tritiated glycine uptake [7] | Molecule | pCREB, relative activation of synaptic marker [5] | pMAPK, relative activation of synaptic marker [8] | further results |
| --- | --- | --- | --- | --- |
| – | CN(CCC(Oc1ccc(-c2ccccc2)cc1)c1ccc(F)cc1)CC(=O)O (stereo not shown) [NFPS, N-[3-(4′-fluorophenyl)-3-(4′-phenylphenoxy)] propylsarcosine] | – | – | LTP in the dentate gyrus (adult mice [1]): increased LTP in the dentate gyrus; NMDA receptor responses in CA1 pyramidal cells (NMDA receptor [2]): enhanced NMDA receptor responses in CA1 pyramidal cells were observed; Prepulse inhibition of the acoustic startle response (adult mice [3]): enhanced prepulse inhibition of the acoustic startle response; NMDA receptor responses in CA1 pyramidal cells (NMDA receptor [4]): enhanced NMDA receptor responses in CA1 pyramidal cells were observed |
| inactive | C=C1C[C@@]23CC[C@H]4[C@@](C)(CCC[C@@]4(C)C(=O)O[C@@H]4O[C@H](CO)[C@@H](O)[C@H](O)[C@H]4O)[C@@H]2CC[C@]1(O[C@@H]1O[C@H](CO)[C@@H](O)[C@H](O[C@@H]2O[C@H](CO)[C@@H](O)[C@H](O)[C@H]2O)[C@H]1O[C@@H]1O[C@H](CO)[C@@H](O)[C@H](O)[C@H]1O)C3 [Rebaudioside A] | ± | ± | GluR1, relative activation of synaptic marker [6]: ± |
| – | CNCC(=O)O [Sarcosine, reference compound] | – | – | IC50 [7]: 35.9 µM |
| inactive | Isosteviol | + | ± | GluR1, percentage increase of control values [6]: 361% |
| – | CN(CC[C@@H](Oc1ccc(C(F)(F)F)cc1)c1ccccc1)CC(=O)O [ORG24598, reference compound] | – | – | IC50 [7]: 0.02 µM |
| inactive | C=C1C[C@@]23CC[C@H]4[C@@](C)(CCC[C@@]4(C)C(=O)O)[C@@H]2CC[C@]1(O)C3 [Steviol] | ++ | ± | GluR1, percentage increase of control values [6]: 340% |
| inactive | C=C1C[C@@]23CC[C@H]4[C@@](C)(CCC[C@@]4(C)C(=O)O[C@@H]4O[C@H](CO)[C@@H](O)[C@H](O)[C@H]4O)[C@@H]2CC[C@]1(O[C@@H]1O[C@H](CO)[C@@H](O)[C@H](O)[C@H]1O[C@@H]1O[C@H](CO)[C@@H](O)[C@H](O)[C@H]1O)C3 [Stevioside] | ± | ++ | GluR1, relative activation of synaptic marker [6]: ± |
